Source: patent US20240117005A1, “NOVEL BICYCLIC PEPTIDES” (THE COUNCIL OF THE QUEENSLAND INSTITUTE OF MEDICAL RESEARCH, priority 2021, published 2024)
Starred links: 1 amine or outer side, 2 acyl side, 3 side chain; linkers in the order of their positions; H or OH if unused. Positions of bridges follow the written chain, without caps; N, C: chain ends. No end group written: not given here. *: point of attachment. TBMB = c1c(C[*:1])cc(C[*:3])cc1C[*:2]; Myristyl = CCCCCCCCCCCCCC*

Key:
[1] = system: CSC; assay: CSC inhibition (Table 10 summary); type: cell-based; conditions: linear peptide derivatives; change stated relative to prototype PDL1-L1
[2] = system: cancer cell proliferation; assay: Cancer cell proliferation (Table 12 summary); type: cell-based
Description: (§1) MDA-MB-231 cells were seeded at 4×10^3 cells/well into a 96-well flat bottom tissue culture plate in a final volume of 100 ul and left to adhere for 24 hours at 37° C. and 5% CO2. Cells were then treated with inhibitors for 72 hours at a final concentration of 200, 100, 50, 25, 12.5 or 6.25 μM. Following inhibition, media was removed and replaced with 100 μL/well of WST-1 cell proliferation reagent (Sigma-Aldrich, Cat# 11644807001) at 1:10 final dilution. Absorbance was recorded at 450 nm at 1, 2, 3, and 4 hour incubation periods using a microplate spectrophotometer (with 30 sec mix time). Data represent a single independent experiment performed in triplicate, results are graphed as mean +/− standard error (SE).
(§2) 4T1, CT26 or MDA-MB-231 cancer cell lines were treated with DL-2 or DL-2-D bicyclic inhibitors for 72 hours. Following inhibition, media was removed and replaced with WST-1 cell proliferation reagent. Absorbance was recorded at 450 nm after 1 hour. Data represent a single independent experiment performed in triplicate; results are graphed as mean +/− standard error (SE).

[3] = system: metastatic initiating cells (MICs); assay: Flow cytometry for alanine walk (MIC inhibition); type: cell-based; conditions: alanine walk peptide inhibitors, FACS MIC signature
Description: FACS (Fluorescence-activated cell sorting) was performed on single-cell suspensions treated with a suite of alanine walk peptide inhibitors. Cells were stained an array of antibodies to target the metastatic initiating cell (MIC) signature including CD44, CD24, SNAIL, ABCB5, CSV and Hoechst dye to monitor cell viability. The FACS gating strategy used is adopted and modified from our signature for metastatic initiating cells (MICs), which sorted cells based on the MIC, therapeutic resistant phenotype, shown to be associated with metastatic and aggressive cancer cells. A flow cytometry gating strategy was always included in the analysis to exclude dead cells ([…]). Flow cytometry acquisition was performed on single cell suspensions using BLSR II. Analysis was performed using FlowJo software.

[4] = system: MDA-MB-231-Br cells; assay: WST-1 cell proliferation assay, MDA-MB-231-Br; type: cell-based, human; conditions: WST-1
[5] = system: MDA-MB-231 cells; assay: WST-1 cell proliferation assay, MDA-MB-231; type: cell-based, human; conditions: MDA-MB-231, WST-1, 72 hours
Description: as §1
(§3) (A) CT26, 4T1 or MDA-MB-231 Cells were treated with inhibitors for 72 hours. Following inhibition, media was removed and replaced with WST-1 cell proliferation reagent. Absorbance was recorded at 450 nm after 1 hour. Data represent a single independent experiment performed in triplicate. Results are graphed as mean +/− standard error (SE). B) MDA-MB-231 or CT26 cancer cells were treated with vehicle control, DL-2-Batch 1 (original stock), DL-2-Batch 2 (current stock), DL-2-TBAB or linear PDL1. Cells were permeabilised and were probed with the DUOLINK ligation assay. Cover slips were mounted on glass microscope slides with ProLong nucblue glass Antifade reagent (Life Technologies). PDL1Ac and IMPα1 DUOLINK Digital images were analysed using ImageJ software (ImageJ, NIH, Bethesda, MD, USA) and graphs represent the mean DOT Fluorescent Intensity in the nucleus or the cytoplasm compartments with significant differences calculated as per one-way ANOVA comparison. (C) MDA-MB-231 or CT26 cancer cells were treated with vehicle control, DL-2-Batch 1 (Original stock), DL-2-Batch 2 (current stock), DL-2-TBAB or linear PDL1. Cells were permeabilised and were probed with the DUOLINK ligation assay. Cover slips were mounted on glass microscope slides with ProLong nucblue glass Antifade reagent (Life Technologies). PDL1-unmodified and IMPα1 DUOLINK digital images were analysed using ImageJ software (ImageJ, NIH, Bethesda, MD, USA) and graphs represent the mean DOT fluorescent intensity in the nucleus or the cytoplasm compartments with significant differences calculated as per one-way ANOVA comparison.
as §2
Cells weretreated with inhibitors for 48 hours. Following inhibition, media was removed and replaced with WST-1 cell proliferation reagent. Absorbance was recorded at 450 nm after 1 hour.

[6] = system: PDL1-PTM1, CSV and ALDH1A1 in 4T1 cells; assay: Imaging of PDL1-PTM1, CSV and ALDH1A1 after cyclic PDL1 peptide; type: cell-based; conditions: 4T1 breast cancer cell line (Table 11 comment)
Description: Breast cancer cell line, 4T1, was treated with vehicle control or cyclic PDL1 peptide (cyclic PDL1) at a concentration of 50 μM. Cells were permeabilised and were probed with primary antibodies against PDL1-PTM1, CSV and ALDH1A1. Cover slips were mounted on glass microscope slides with ProLong nucblue glass Antifade reagent (Life Technologies). PDL1-PTM1, CSV and ALDH1A1 digital images were analysed using ImageJ software (ImageJ, NIH, Bethesda, MD, USA). Graphs represent the mean fluorescent intensity in the nucleus or the cytoplasm compartments with significant differences calculated as per Mann-Whitney analysis or the ratio of nuclear to cytoplasmic staining for PDL1-PTM1 which was calculated using the formula F(n−b)/(c−b) wherein n=nuclear staining, b=background, c=cytoplasmic. A ratio of 1 or high indicates nuclear bias, under 1 indicates cytoplasmic bias.

[7] = system: 4T1 cells; assay: WST-1 cell proliferation assay, 4T1; type: cell-based; conditions: 4T1, WST-1, 72 hours
Description: as §3, §2

[8] = system: CD8+ TIM3+ T cells; assay: FACS of CD8+ TIM3+ T cells from 4T1 tumour mouse model; type: in vivo; conditions: 4T1 TNBC tumour mouse model
From the text: FIG. 32 provides graphical representations showing a comparison between DL-2 and DL-2-D. (A) As per FIGS. 24, and 25, above. (B) Fixed cells were washed with PBS and resuspended in PBS containing 1% BSA prior to antibody staining. Primary antibodies targeting CD8, TIM3 and PD1 antibodies were used. Appropriate antibody controls were used for all flow cytometry stain and acquisition. All samples were acquired on an LSR Fortessa cytometer (BD Biosciences, Franklin Lakes, NJ), and data were analyzed using FlowJo v10 software

[9] = Rat plasma stability assay; type: in vitro ADME; conditions: 37° C., up to 24 hours
Description: The stability assay was performed as per CRO's protocol (Creative Peptides). In brief, peptide stability assays were carried out using a rat plasma model with the following steps: • 3.6 mL of human plasma and rat plasma were thawed at room temperature and centrifuged at 3000 rpm for 15 min. Remove the precipitate. • Prepare 20 mL termination solution ([…]) and precool at 4° C. • Prepare the following solution:
• Incubate the tube at 37° C. Take out 200 μL plasma sample at desired time points up to 24 hours respectively (e.g., at 0, 15, 30, 60, 120 mins, etc). Add 400 μL pre-cooled stop solution, centrifuge at 3000 rpm, 4° C. for 15 min, and carefully aspirate the supernatant. • The supernatant samples were filtered with a 0.22 μm filter membrane, and then analysed by LC-MS in order to determine the percentage of the test compound remaining.
The stability assay was performed using the same protocol as described above in Example 7.

[10] = system: 4T1 TNBC metastatic cancer cells; assay: 4T1 model of metastatic breast cancer in mice; type: in vivo, mouse
Description: 4T1 Gold standard immunotherapy resistant mouse model mice obtained from the ARC, Perth and mice were inoculated with 4T1 TNBC metastatic cancer cells. DL-2 is supplied lyophilised in glass vials and was reconstituted using sodium chloride injection BP (0.9% saline) to make a stock solution of 10 mg/mL using a needle/syringe, DL-2 was mixed by inversion. Animals were then injected by intraperitoneal injection at 10, 20 or 30 mg/kg daily and rested over the weekend. Mice were monitored over time for body weight and tumour volume.
4T1 Gold standard immunotherapy resistant mouse model mice obtained from the ARC, Perth and mice were inoculated with 4T1 TNBC metastatic cancer cells. DL-2 or DL-2-D is supplied lyophilised in glass vials was reconstituted using sodium chloride injection BP (0.9% saline) to make a stock solution of 10 mg/mL using a needle/syringe, DL-2 was mixed by inversion. Animals were then injected by intraperitoneal injection and mice were monitored over time for body weight and tumour volume for DL-2 at 20 mg/kg every second day with resting over the weekend in conjunction with αPD1 or isotype control (10 mg/kg).
DL-2-D was mixed by inversion. Animals were then injected by intraperitoneal injection and mice were monitored over time for body weight and tumour volume for DL-2-D at a concentration of 20 mg/kg every two days (identical regime to αPD1) in conjunction with αPD1 or isotype control (10 mg/kg).

[11] = system: CT26 cells; assay: WST-1 cell proliferation assay, CT26; type: cell-based, mouse; conditions: CT26, WST-1, 72 hours
Description: as §3, §2

[12] = DL-2-D (20 mg/kg) and αPD1 (10 mg/kg) combination therapy, day 20

ACLTFIFCRLRKGRCMMDVKK [DL2-Linear, Myristyl- DL2 linear peptide]
Potency (CSC inhibition) [1]: No change

ACLTFIFRLRCKGRMCMDVGKK (Myristyl-ACLTFIFRLRCKGRMCMDVGKK; linker 2-11-16 via TBMB) [DL-3, bicyclic peptide, Myristyl- N-terminus, TBMB backbone]
inhibition of cancer cell proliferation ([2]; Table 12 comment): DL-3 displayed no

AFIFRLRKGRMMDVKK
% Inhibition (number of metastatic initiating cells) [3]: 80.13%

LTFICFRLRKGRMCMDVCGKK (Myristyl-LTFICFRLRKGRMCMDVCGKK; linker 5-14-18 via TBMB) [DL-1, bicyclic peptide, Myristyl- N-terminus, TBMB backbone]
inhibition of proliferation [4]: able to inhibit proliferation
inhibition of proliferation [5]: able to inhibit proliferation
fold less potent than DL-2 at inhibiting cancer cell proliferation [2]: DL-1 was 3-fold less

LTFIFRLRKGRMMDVKKAGGA (Myristyl-LTFIFRLRKGRMMDVKKAGGA; not fully specified) [PDL1-L1 C2, Myristyl- cyclic peptide derivative, 4 linker amino acids]
inhibition of mesenchymal cancer markers and nuclear PDL1-PTM1 [6]: Failed to inhibit

TAIFRLRKGRMMDVKK
% Inhibition (number of metastatic initiating cells) [3]: 74.35%

TFAFRLRKGRMMDVKK
% Inhibition (number of metastatic initiating cells) [3]: 30.2%

TFIARLRKGRMMDVKK
% Inhibition (number of metastatic initiating cells) [3]: 4.4%

TFIFALRKGRMMDVKK
% Inhibition (number of metastatic initiating cells) [3]: 71.67%

TFIFRARKGRMMDVKK
% Inhibition (number of metastatic initiating cells) [3]: 35.6%

TFIFRLAKGRMMDVKK
% Inhibition (number of metastatic initiating cells) [3]: 43.98%

TFIFRLRAGRMMDVKK
% Inhibition (number of metastatic initiating cells) [3]: 0%

TFIFRLRKARMMDVKK
% Inhibition (number of metastatic initiating cells) [3]: 41.38%

TFIFRLRKGAMMDVKK
% Inhibition (number of metastatic initiating cells) [3]: 62.69%

TFIFRLRKGRAMDVKK
% Inhibition (number of metastatic initiating cells) [3]: 74.35%

TFIFRLRKGRMADVKK
% Inhibition (number of metastatic initiating cells) [3]: 100%

TFIFRLRKGRMMAVKK
% Inhibition (number of metastatic initiating cells) [3]: 100%

TFIFRLRKGRMMDAKK
% Inhibition (number of metastatic initiating cells) [3]: 81.9%

TFIFRLRKGRMMDVAK
% Inhibition (number of metastatic initiating cells) [3]: 48.7%

TFIFRLRKGRMMDVKA
% Inhibition (number of metastatic initiating cells) [3]: 58.03%

acltfifcrirckGrcmmdvkk [DL-2-D]
inhibition of proliferation [7]: significantly inhibit the proliferation
abrogating the TIM3+ immunotherapy-resistant signature in CD8+ T cells [8]: more potent than DL-2
stability in rat plasma (percentage of test compound remaining) [9]: significantly more stable
inhibition of proliferation [5]: significantly inhibit the proliferation
lung metastasis [10, 12]: reduces
primary tumour burden [10, 12]: reduces
lung, liver or spleen weights ([10]; DL-2-D alone): does not alter
body weight ([10]; DL-2-D and anti-PD1 combination therapy): No change
tumour volume ([10]; DL-2-D as a monotherapy agent): significantly inhibits
lung, liver or spleen weights ([10]; DL-2-D in combination with anti-PD1): does not alter
body weight ([10]; DL-2-D monotherapy): No change
inhibition of proliferation [11]: significantly inhibit the proliferation

acltfifcrlrkGrcmmdvkk [DL2-D-Linear]
Potency (CSC inhibition) [1]: No change

kkvdmmcrGkrlrcfiftlca [DL2-D Ret Linear]
Potency (CSC inhibition) [1]: No change
